Experimental data: paper PMC12293736, “Discovery of N-(6-Methoxypyridin-3-yl)quinoline-2-amine Derivatives for Imaging Aggregated α-Synuclein in Parkinson’s Disease with Positron Emission Tomography” (Cells, 2025)
Several values for one entry are separate records, joined by “and”; a condition that tells them apart may be missing. Equal entries are not always repeated. Entries after “also recorded” stand apart in the source; their conditions may differ. Where two headings read alike, the source gives them in different places.

What was measured:
[1] = PET brain imaging studies in non-human primates; format: in vivo, cynomolgus macaques; settings: for blood–brain barrier penetration / brain washout kinetics: in words
Procedure: All animal experiments were conducted under a research protocol approved by the Washington University Institutional Animal Care and Use Committee (IACUC). The NHP study was conducted in the NHP microPET facility at the Washington University School of Medicine in St. Louis. Three adults male cynomolgus macaques (9.73 ± 0.71 kg) were used in this study. Each animal was fasted for 12 h prior to the PET scans. Anesthesia was induced with an intramuscular injection of ketamine (10–20 mg kg^−1) and glycopyrrolate (0.013–0.017 mg kg^−1) to reduce salivary gland and respiration secretions. The animal was intubated, and anesthesia was maintained at 40–50% N2O and 1.4–2.0% isoflurane/oxygen throughout the procedure. A percutaneous venous catheter was used for the radiotracer injection. During the PET scanning session, the head was positioned supine with the brain in the center of the field of view. The PET scans were performed with a microPET Focus 220 scanner (Concorde/CTI/Siemens Microsystems, Knoxville, TN, USA). A 10 min transmission scan was performed to check the positioning; once confirmed, a 45 min transmission scan was obtained for attenuation correction. Subsequently, a 2 h dynamic emission scan was acquired after the administration of 365.44 ± 26.69 MBq of [^11C]7f, [^11C]8i, or [^18F]7j via the venous catheter. The PET data were collected from 0 to 120 min with the following timeframes: 3 × 1 min, 4 × 2 min, 3 × 3 min, and […]. The PET images were reconstructed using a filtered back projection method into a volume size of 128 × 128 × 95 and a voxel size of 1.85 × 1.85 × 0.796 mm^3, with all corrections (scatter, decay, random, normalization, etc.) applied. The dynamic PET images were motion-corrected and then co-registered to previous acquired structural MPRAGE MR images. The INIA19 primate brain and atlas (https://www.nitrc.org/projects/inia19/, accessed on 2 August 2023) were then co-registered to the MR images, so as to obtain the regional time−activity curves (TACs) in the regions of interests (ROIs). The radioactivity uptake was normalized using the body weight and the injected dose to obtain the standardized uptake values (SUVs). A voxel-wise reference Logan plot was performed using the cerebellum as the reference region to obtain the distribution volume ratio (DVR), with a linear time range of 30 min to 120 min:(1) ∫0t Ctτdτ/Ctt=DVR∫0t Crτdτ/Ctt+β
Here, Cr(t) is the regional time activity curve (TAC) of the reference tissue, Ct(t) is the pixelwise time activity curves of the target tissue tracer concentration measured via PET, and DVR is the distribution volume ratio of the target to the reference tissue.
The image processing was performed using MIAKAT in MATLAB (R2023a, The MathWorks, Inc., Natick, MA, USA).

[2] = target: T1, LBD-amplified fibrils (α-synuclein) (Homo sapiens, UniProt P37840); assay: homologous competitive binding assay of radiotracers, LBD-amplified fibrils
T1 construct: made in house
Procedure: (§1) The binding affinity determination (Kd) was performed using homologous competitive binding assays of radiotracers with recombinant α-synuclein fibrils, LBD-amplified fibrils, PD tissues, and AD brain tissue homogenates. The brain tissue from PD and AD cases was obtained from the Banner Sun Health Research Institute Brain and Body Donation Program of Sun City, Arizona.
(§2) These direct binding assays used a fixed concentration of either recombinant α-synuclein fibrils, LBD-amplified fibrils, PD, AD tissue, or a radioligand ([^11C]7f, [^18F]7j, [^11C]8i and [^125I]8i, [^3H]8i) and varying concentration ranges of the corresponding homologous non-radiolabeled standard reference compound. In brief, various concentrations of corresponding cold compounds were diluted in 30 mM of Tris-HCl at pH 7.4, with 0.1% BSA. The direct binding assay was carried out by mixing (1) recombinant α-synuclein fibrils, LBD-amplified fibrils, PD, or AD tissue; (2) a radioligand ([^11C]7f or [^18F]7j); and (3) various concentrations of corresponding cold compounds, with incubation at 37 °C for 1 h for [^18F]7j and 30 min for [^11C]7f. After incubation, the bound and free radioligands were separated via vacuum filtration through 1.0 µm glass fiber filters in 96-well filter plates (MilliporeSigma, Burlington, MA, USA), followed by three 200 µL washes with ice-cold assay buffer. The filters containing the bound ligand were mixed with 150 µL of Optiphase Supermix scintillation cocktail (PerkinElmer) and counted immediately. All data points were obtained in triplicate. The dissociation constant (Kd) and the maximal number of binding site (Bmax) values were determined by fitting the data to the following equation: bound = (Bmax × [radioligand])/([radioligand] + [unlabeled compound] + Kd) + bottom. This was achieving via non-linear regression using GraphPad Prism software (version 4.0), where (bottom) is the non-specific binding and the [radioligand], [unlabeled compound], and Kd are expressed in nM. The synthesis of the tested compounds is described in the Supporting Information. […]
(§3) c) Direct radioactive competitive binding assay of radiotracers [11C]7f, [ 18 F]7j, [ 11C]8i and [ 125 I]8i and [ 3H]8i Affinity determination (Kd) using direct radioactive competitive binding assay with recombinant α-synuclein fibrils, Banner PD tissues, AD brain tissue homogenates. Brain tissue from PD and AD cases was obtained from the Banner Sun Health Research Institute Brain and Body Donation Program of Sun City, Arizona. […]
(§4) These direct binding assays used a fixed concentration of either α-synuclein fibrils or AD tissue and the radioligand ([11C]7f, [ 18F]7j, [ 11C]8i and [ 125 I]8i, [ 3H]8i ) and varying concentration ranges of corresponding homologous non-radiolabeled standard reference compound. In brief, the standard homologous reference compound was diluted in 30 mM Tris-HCl pH 7.4, 0.1% BSA. Reactions were incubated at 37 °C for 1 h before quantifying bound radioligand.
(§5) Bound and free radioligands were separated by vacuum filtration through 1.0 µm glass fiber filters in 96-well filter plates (Millipore), followed by three 200 µL washes with ice-cold assay buffer. Filtrates containing the bound ligand were mixed with 150 µL of Optiphase Supermix scintillation cocktail (PerkinElmer) and counted immediately. All data points were performed in triplicate. The dissociation constant (Kd) and the maximal number of binding sites (Bmax) values were determined by fitting the data to the equation. […]

[3] = target: AD brain tissue homogenates; assay: homologous competitive binding assay of radiotracers, AD tissue; parameters: species or system human; settings: average, NB = no binding
Procedure: as §1
These direct binding assays used a fixed concentration of either recombinant α-synuclein fibrils, LBD-amplified fibrils, PD, AD tissue, or a radioligand ([^11C]7f, [^18F]7j, [^11C]8i and [^125I]8i, [^3H]8i) and varying concentration ranges of the corresponding homologous non-radiolabeled standard reference compound. […] The filters containing the bound ligand were mixed with 150 µL of Optiphase Supermix scintillation cocktail (PerkinElmer) and counted immediately. […] The dissociation constant (Kd) and the maximal number of binding site (Bmax) values were determined by fitting the data to the following equation: bound = (Bmax × [radioligand])/([radioligand] + [unlabeled compound] + Kd) + bottom. […]
Bound and free radioligands were separated by vacuum filtration through 1.0 µm glass fiber filters in 96-well filter plates (Millipore), followed by three 200 µL washes with ice-cold assay buffer. […] The dissociation constant (Kd) and the maximal number of binding sites (Bmax) values were determined by fitting the data to the equation. […]

[4] = target: T2, PD brain tissues (Homo sapiens, UniProt P37840); assay: homologous competitive binding assay of radiotracers, PD tissue; settings: for binding to PD tissues versus AD and control brain tissues: in words
T2 construct: The brain tissue from PD and AD cases was obtained from the Banner Sun Health Research Institute Brain and Body Donation Program; tissue Banner Sun Health Research Institute Brain and Body Donation Program; host or cells: human PD post mortem brain tissue
Procedure: as §1, §2, §3, §4
as §5, with “equation. Bound = (Bmax*[Radioligand])/([Radioligand] + [Unlabeled compound] + Kd) + Bottom by nonlinear regression using GraphPad Prism software (version 4.0), where (Bottom) is nonspecific binding and [Radioligand], [Unlabeled compound], and Kd is expressed in nM” for “equation.”
Production of [ 11C]CH3I followed the reported method. Briefly, [ 11C]CH3I was produced on-site from [ 11C]CO2 using a GE PETtrace MeI Microlab. Up to 1.4 Ci of [ 11C]carbon dioxide was produced from the JSW BC-16/8 cyclotron […]

[5] = target: T3, recombinant α-synuclein fibrils (Homo sapiens, UniProt P37840); assay: photo-crosslinking of α-synuclein fibrils, digestion and LC-MS/MS; settings: UV irradiation, GluC or trypsin digest
Text: To gain additional insight into the binding site of these molecules, a photoaffinity variant (TZ-CLX) was synthesized containing a diazirine as a photo-crosslinking motif. Closely resembling the 6-substituted lead compounds 7j and 8i, this compound covalently inserts into C-H bonds on nearby residues in the α-synuclein fibril binding site upon irradiation with ultraviolet (UV) light. Using established procedures, the crosslinked fibrils can then be disaggregated, digested using either GluC or trypsin, and analyzed via LC-MS/MS to ascertain residue-level binding information. […] Minor crosslinks were also identified in the N-terminal binding site, primarily via trypsin digestion and corresponding to the peptide EGVVAAAEK (residues 13–21, proximal to site 2, Figure 3). […]
Bottom-up LC-MS/MS Analysis. Peptide mixtures resulting from labeling and digestion were resolubilized in 25 µl of water with 0.1%TFA and analyzed by a Q-Exactive HF mass spectromet er (Thermo Fisher Scientific; Waltham, MA) coupled to a Dionex Ultimate 3000 UHPLC system (Thermo Fisher Scientific; Waltham, MA) equipped with an in- house made 15 ௗcm long fused silica capillary column (75 μm ID), packed with reversed phase Repro-Sil Pure C18-AQ 2.4 μm resin (Dr. Maisch GmbH, Ammerbuch, Germany). […]

[6] = target: T3, recombinant α-synuclein fibrils; assay: radioactive competitive binding assay with [^3H]BF2846 (Tables 1 and 2: or [^18F]7j with LBD-amplified fibrils); settings: running text b71; fibril type and assay not stated
[7] = Figure 5, single representative curve, read-out: Kd, LBD amplified fibrils, representative assay
[8] = homologous competitive binding, average values for 7f (n = 3) and 7j (n = 15), read-out: Kd, LBD-amplified fibrils
[9] = homologous competitive binding, average (n = 4 for 7j), NB = no binding, read-out: Kd, PD tissue

SMILES	blood–brain barrier penetration [1]	brain washout kinetics [1]	time of peak brain uptake post-injection ([1]; n = 1 per tracer) [min]	Kd [2, 7] [nM]	Kd [2, 8]	Kd [4, 9] [nM]	binding to PD tissues versus AD and control brain tissues [4]	further results
COc1ccc(Nc2ccc3cc(O[11CH3])ccc3n2)cn1 [[^11C]7f]	penetrated the BBB well	rapid washout from all brain regions	3	11	15.5 ± 4.8 nM			Kd [3]: 62.7 ± 68.8 nM
COc1ccc(Nc2ccc3cc(OCC[18F])ccc3n2)cn1 [[^18F]7j]	penetrated the BBB well	rapid washout from all brain regions	3	26	21 ± 8.7 nM	19.5 ± 15.5		Kd ([4]; Figure 5, single representative curve, read-out: Kd, PD tissue, representative assay): 3.6 nM; Kd, AD tissue [3]: no binding
C#CCCC1(CCOc2ccc3nc(Nc4ccc(OC)nc4)ccc3c2)N=N1 [TZ-CLX, 6-(2-(3-(But-3-yn-1-yl)-3H-diazirin-3-yl)ethoxy)-N-(6-methoxypyridin-3-yl)quinolin-2-amine]								binding site on α-synuclein fibrils by photo-crosslinking [5]: significant selectivity for the C-terminal binding sites of α-synuclein fibrils
[11CH3]Oc1ccc(Nc2ccc3cc(OC/C=C/I)ccc3n2)cn1 [[^11C]8i]	penetrated the BBB very well	slow					potent selectivity for PD brain tissues over AD and control tissues	Kd [6]: 5 nM; initial brain uptake, standardized uptake value (SUV) ([1]; 3 min post-injection, n = 1 per tracer): about 3 g/mL; brain uptake ratio from 3 min to 120 min ([1]; washout kinetics, n = 1): about 1.5
COc1ccc(Nc2ccc3cc(OC/C=C/[125I])ccc3n2)cn1 [[^125I]8i]					5 nM and 4.8 nM	5	selective for PD tissues versus AD or control tissues; also recorded: very potent for PD tissues but not for control and AD brain tissues	Bmax, high affinity binding site, PD tissues ([4]; two-site binding): 50 nM; Bmax, low affinity binding site, PD tissues ([4]; two-site binding): 12 µM; Kd ([4]; two-site binding, read-out: Kd, high affinity binding site, PD tissues): 0.61 nM
